Assay results taken from patent US10123993B2, “Cyclic ureas as inhibitors of rock” (BRISTOL-MYERS SQUIBB COMPANY, priority 2015, dated 2018).

biological target: ROCK2 (Homo sapiens, UniProt O75116); test: ROCK2 kinase inhibition assay (Caliper LABCHIP, FITC peptide substrate); type: biochemical; conditions: 5 μM ATP, 1.5 μM peptide substrate; value ranges
Summary of the method: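 Dose-response curves gave IC50 from inhibition of peptide phosphorylation, measured by LabChip separation after EDTA stop. Reactions used 1.5 μM FITC-labelled peptide, 5 μM ATP, 20 mM HEPES pH 7.5 with MgCl2, Brij-35, DTT, and under 2% DMSO.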

Chain of ROCK2 (O75116 whole entry, species assumed): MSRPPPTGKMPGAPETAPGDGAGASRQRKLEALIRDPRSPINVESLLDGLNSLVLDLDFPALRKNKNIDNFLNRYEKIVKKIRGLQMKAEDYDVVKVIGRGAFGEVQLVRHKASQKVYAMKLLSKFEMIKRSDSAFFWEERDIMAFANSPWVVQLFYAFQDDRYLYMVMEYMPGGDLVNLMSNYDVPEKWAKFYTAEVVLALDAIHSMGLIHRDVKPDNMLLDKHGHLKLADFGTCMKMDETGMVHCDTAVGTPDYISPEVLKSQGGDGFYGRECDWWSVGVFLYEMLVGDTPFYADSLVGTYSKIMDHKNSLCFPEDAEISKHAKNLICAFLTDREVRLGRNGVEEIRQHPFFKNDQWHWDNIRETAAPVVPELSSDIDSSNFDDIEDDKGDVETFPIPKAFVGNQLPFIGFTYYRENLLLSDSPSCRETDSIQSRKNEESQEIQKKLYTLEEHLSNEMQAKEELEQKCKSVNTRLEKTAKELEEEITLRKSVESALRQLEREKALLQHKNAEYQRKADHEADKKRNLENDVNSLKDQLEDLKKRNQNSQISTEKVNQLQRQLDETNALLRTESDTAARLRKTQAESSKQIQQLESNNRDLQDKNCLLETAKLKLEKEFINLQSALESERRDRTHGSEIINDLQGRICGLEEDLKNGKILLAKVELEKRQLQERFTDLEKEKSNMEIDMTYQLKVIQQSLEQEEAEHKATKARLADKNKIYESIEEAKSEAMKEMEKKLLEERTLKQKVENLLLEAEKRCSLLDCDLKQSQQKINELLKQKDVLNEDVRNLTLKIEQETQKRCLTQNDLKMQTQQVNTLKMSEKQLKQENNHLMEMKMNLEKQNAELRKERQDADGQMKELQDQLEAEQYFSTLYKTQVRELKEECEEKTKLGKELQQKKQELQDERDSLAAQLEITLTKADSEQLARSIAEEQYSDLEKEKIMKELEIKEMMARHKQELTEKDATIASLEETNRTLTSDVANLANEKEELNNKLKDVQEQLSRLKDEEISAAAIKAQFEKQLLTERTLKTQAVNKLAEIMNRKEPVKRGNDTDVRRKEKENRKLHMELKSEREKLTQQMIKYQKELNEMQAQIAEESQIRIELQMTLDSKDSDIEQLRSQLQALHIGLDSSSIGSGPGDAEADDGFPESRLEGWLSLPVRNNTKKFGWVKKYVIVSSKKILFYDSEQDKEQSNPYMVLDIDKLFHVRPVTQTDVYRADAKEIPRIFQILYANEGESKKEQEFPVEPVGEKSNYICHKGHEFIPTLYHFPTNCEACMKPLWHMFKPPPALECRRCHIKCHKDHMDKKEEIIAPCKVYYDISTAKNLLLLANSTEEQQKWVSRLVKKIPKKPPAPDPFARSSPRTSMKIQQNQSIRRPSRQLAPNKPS

IC50 [nM]	SMILES
2.1 to 20	COc1cc(F)cc(Cn2ccn(-c3ccc(-c4cn[nH]c4)c(C)n3)c2=O)c1 [Example 185, 1-(3-fluoro-5-methoxy-benzyl)-3-(6-methyl-5-(1H-pyrazol-4-yl)pyridin-2-yl)-1H-imidazol-2(3H)-one]
20.1 to 200	O=C1N(Cc2ccccc2)CCN1c1ccc(-c2cnoc2)cc1 [Example 60, 1-benzyl-3-(4-(isoxazol-4-yl)phenyl)imidazolidin-2-one]
200 to 2000	COc1cccc(CN2C(=O)N(c3ccc(-c4cn[nH]c4)cc3)C(=O)C2CO)c1 (stereo not drawn) [Example 153, 3-(4-(1H-Pyrazol-4-yl)phenyl)-5-(hydroxymethyl)-1-(3-methoxybenzyl)imidazolidine-2,4-dione]
20.1 to 200	O=C1N(Cc2ccc(F)cc2)CCN1c1ccc(-c2cn[nH]c2)cc1 [Example 5, 1-(4-(1H-pyrazol-4-yl)phenyl)-3-(4-fluorobenzyl)imidazolidin-2-one]
20.1 to 200	CNC(=O)C(c1cccc(OC)c1)N1CCN(c2ccc(-c3cn[nH]c3)cc2)C1=O (single isomer, unassigned) [Example 291, 2-(3-(4-(1H-pyrazol-4-yl)phenyl)-2-oxoimidazolidin-1-yl)-2-(3-methoxyphenyl)-N-methylacetamide]
20.1 to 200	Cc1cccc(CN2CCN(c3ccc(-c4cn[nH]c4)cn3)C2=O)c1 [Example 234, 1-(5-(1H-pyrazol-4-yl)pyridin-2-yl)-3-(3-methylbenzyl)imidazolidin-2-one]
20.1 to 200	COc1cccc(C(C(=O)NC2CC2)N2CCN(c3ccc(-c4cn[nH]c4)cc3)C2=O)c1 (single isomer, unassigned) [Example 300, 2-(3-(4-(1H-pyrazol-4-yl)phenyl)-2-oxoimidazolidin-1-yl)-N-cyclopropyl-2-(3-methoxyphenyl)acetamide]
200 to 2000	CC(c1cccc(OCC2CC2)c1)n1ccn(-c2ccc(-c3cn[nH]c3)cc2)c1=O (single isomer, unassigned) [Example 356, 1-(4-(1H-pyrazol-4-yl)phenyl)-3-(1-(3-(cyclopropylmethoxy)phenyl)ethyl)-1H-imidazol-2(3H)-one]
20.1 to 200	COc1cc(F)cc(CN2CCN(c3cc(F)c(-c4cn[nH]c4)cc3F)C2=O)c1 [Example 448, 1-(2,5-difluoro-4-(1H-pyrazol-4-yl)phenyl)-3-(3-fluoro-5-methoxybenzyl)imidazolidin-2-one]
2.1 to 20	COCC(c1cccc(OC)c1)N1CCN(c2ccc(-c3cn[nH]c3)cc2)C1=O (single isomer, unassigned) [Example 156, 1-(4-(1H-Pyrazol-4-yl)phenyl)-3-(2-methoxy-1-(3-methoxyphenyl)ethyl)imidazolidin-2-one]
200 to 2000	COc1nc(N2CCN(Cc3noc(C)n3)C2=O)ccc1-c1cn[nH]c1 [Example 255, 1-((6-methoxy-5-(1H-pyrazol-4-yl)pyridin-2-yl)-3-(5-methyl-1,2,4-oxadiazol-3-yl)methyl)imidazolidin-2-one]
20.1 to 200	COc1cc(F)cc(CN2CC(=O)N(c3ccc(-c4cn[nH]c4)cc3)C2=O)c1 [Example 84, 3-(4-(1H-pyrazol-4-yl)phenyl)-1-(3-fluoro-5-methoxybenzyl)imidazolidine-2,4-dione]
20.1 to 200	COc1cccc(C(C)(C(N)=O)N2CCN(c3ccc(-c4cn[nH]c4)cc3)C2=O)c1 (stereo not drawn) [compound 306, 2-(3-(4-(1H-pyrazol-4-yl)phenyl)-2-oxoimidazolidin-1-yl)-2-(3-methoxyphenyl)propanamide]
2.1 to 20	COc1cc(CN2C(=O)N(c3ccc(-c4cn[nH]c4)cn3)CC2(C)C)ccc1F [Example 450, 1-(5-(1H-pyrazol-4-yl)pyridin-2-yl)-3-(4-fluoro-3-methoxybenzyl)-4,4-dimethylimidazolidin-2-one]
200 to 2000	COc1cccc(C(CC(C)(C)O)N2CCN(c3ccc(-c4cn[nH]c4)c(OC)c3)C2=O)c1 (stereo not drawn) [Example 22, 1-(3-Hydroxy-1-(3-methoxyphenyl)-3-methylbutyl)-3-(3-methoxy-4-(1H-pyrazol-4-yl)phenyl)imidazolidin-2-one]
200 to 2000	O=C1N(Cc2ccc(F)c(F)c2)CCN1c1ccc(-c2cn[nH]c2)cn1 [Example 238, 1-(5-(1H-pyrazol-4-yl)pyridin-2-yl)-3-(3,4-difluorobenzyl)imidazolidin-2-one]
200 to 2000	CCc1nc(-n2ccn(C(C)c3cc(F)cc(OC)c3)c2=O)ccc1-c1cn[nH]c1 (single isomer, unassigned) [Example 363, 1-(6-ethyl-5-(1H-pyrazol-4-yl)pyridin-2-yl)-3-(1-(3-fluoro-5-methoxyphenyl)ethyl)-1H-imidazol-2(3H)-one]
< 2	COc1cc(Cn2ccn(-c3ccc(-c4cn[nH]c4)c(OC)n3)c2=O)ccc1F [Example 477, 1-(4-fluoro-3-methoxybenzyl)-3-(6-methoxy-5-(1H-pyrazol-4-yl)pyridin-2-yl)-1H-imidazol-2(3H)-one]
20.1 to 200	COc1ccc(F)c(CN2CCN(c3ccc(-c4cn[nH]c4)cc3)C2=O)c1 [Example 120, 1-(4-(1H-pyrazol-4-yl)phenyl)-3-(2-fluoro-5-methoxybenzyl)imidazolidin-2-one]
< 2	COc1ccc(F)c(Cn2ccn(-c3ccc(-c4cn[nH]c4)c(OC)n3)c2=O)c1 [Example 373, 1-(2-fluoro-5-methoxybenzyl)-3-(6-methoxy-5-(1H-pyrazol-4-yl)pyridin-2-yl)-1H-imidazol-2(3H)-one]
2.1 to 20	COc1cc(F)cc(Cn2ccn(-c3ccc(-c4cn[nH]c4)cc3)c2=O)c1 [Example 336, 1-(4-(1H-pyrazol-4-yl)phenyl)-3-(3-fluoro-5-methoxybenzyl)-1H-imidazol-2(3H)-one]
20.1 to 200	COc1cccc(C(CO)N2CCN(c3ccc(-c4cn[nH]c4)cn3)C2=O)c1 (single isomer, unassigned) [Example 462, 1-(5-(1H-pyrazol-4-yl)pyridin-2-yl)-3-(2-hydroxy-1-(3-methoxyphenyl)ethyl)imidazolidin-2-one]
2.1 to 20	COc1cccc(C(CO)N2CCN(c3ccc(-c4cn[nH]c4)c(C)n3)C2=O)c1 (single isomer, unassigned) [Example 161, 1-(2-hydroxy-1-(3-methoxy-phenyl)ethyl)-3-(6-methyl-5-(1H-pyrazol-4-yl)pyridin-2-yl)imidazolidin-2-one]
2.1 to 20	COc1cccc(C(C(=O)NC2CC2)N2CCN(c3ccc(-c4cn[nH]c4)cc3)C2=O)c1 (single isomer, unassigned) [Example 301, 2-(3-(4-(1H-pyrazol-4-yl)phenyl)-2-oxoimidazolidin-1-yl)-N-cyclopropyl-2-(3-methoxyphenyl)acetamide]
< 2	COc1cccc(CN2C(=O)N(c3ccc(-c4cn[nH]c4)cc3)CC2C(C)(C)O)c1 (single isomer, unassigned; (-)) [Example 44, (−)-1-(4-(1H-Pyrazol-4-yl)phenyl)-4-(2-hydroxypropan-2-yl)-3-(3-methoxybenzyl)imidazolidin-2-one]
20.1 to 200	COc1cccc(CN2CCN(c3ccc(-c4cn[nH]c4)cc3)C2=O)c1F [Example 116, 1-(4-(1H-Pyrazol-4-yl)phenyl)-3-(2-fluoro-3-methoxybenzyl)imidazolidin-2-one]
200 to 2000	CCc1cc(-n2ccn(Cc3cccc(OCC4CC4)c3)c2=O)ccc1-c1cn[nH]c1 [Example 455, 1-(3-(cyclopropylmethoxy)benzyl)-3-(3-ethyl-4-(1H-pyrazol-4-yl)phenyl)-1H-imidazol-2(3H)-one]
